Experiment: Inhibitory activity against O-linked N-acetyl-glucosaminidase (O-GlcNAc'ase)
Parameters: species or system Rattus norvegicus

Ki: 50 µM
SMILES: CC(=O)NC1[C@@H](O)[C@@H](O)C(CO)O[C@H]1SC1CC(=O)N(c2ccc(C(=O)c3ccccc3)cc2)C1=O (stereo partly specified)

Source: ChEMBL document CHEMBL1134127, “A mechanism-based affinity-labeling agent for possible use in isolating N-acetylglucosaminidase” (Bioorg Med Chem Lett, 2001)
